Test results reported in US5869457A, “Modified proteins and their use for controlling viral infections” (Rijksuniversiteit Te Groningen, priority 1991, dated 1999).

What was measured:
[1] = test system: OKT4A epitope of the CD4 receptor; experiment: CD4 immunofluorescence assay, OKT4A mAb-CD4 interaction on MT-4 cells; details: at 25 μg/ml
[2] = test system: plasma; experiment: anticoagulant action determined as APTT; format: biochemical
Protocol: The compounds were dissolved in PBS of pH 7.2 and 30 μl were added to 270 μl of plasma.
APTT=activated partial thromboplastin time (seconds) APTT was determined electromechanically using standard methods.

Molecule	inhibition of OKT4A mAb-CD4 interaction [1]	Anticoagulant action, APTT ([2]; 0.01 μg/ml)	Anticoagulant action, APTT ([2]; 0.1 μg/ml)	Anticoagulant action, APTT ([2]; 1 μg/ml)	Anticoagulant action, APTT ([2]; 3 μg/ml)	Anticoagulant action, APTT ([2]; 5 μg/ml)	Anticoagulant action, APTT ([2]; 10 μg/ml)	Anticoagulant action, APTT ([2]; 100 μg/ml)	anticoagulant activity as side effect ([2]; in words)
O=C(O)C1=CC(=C(c2ccc(O)c(C(=O)O)c2)c2ccc(O)c(C(=O)O)c2)C=CC1=O [Aurintricarboxylic acid (ATA), Aurintricarboxylic acid]	completely inhibited								
Heparin		38.4 s	40.3 s	40.5 s	65 s	140 s	220 s	> 400 s	serious anticoagulant activity
